Tested on: LPS-activated RAW 264.7 macrophages
Experiment: IL-6 and TNF-α secretion by ELISA
Format: cell-based, murine
Description: The effects of the test samples on IL-1β, TNF-α, and IL-6 production were measured by ELISA according to the manufacturer’s instructions. In brief, 50 µl of biotinylated antibody reagent and 50 µl of supernatant were added to a stripwell plate precoated with anti-mouse IL-1β, TNF-α, or IL-6 antibodies, which was then incubated at room temperature for 2 h. After washing the plate three times with washing buffer, 100 µl of diluted streptavidin-HRP concentrate was added to each well and the plate incubated at room temperature for 30 min. The washing process was repeated, then 100 µl of a premixed tetramethylbenzidine substrate solution was added to each well and the plate incubated at room temperature in the dark for 30 min. After addition of 100 µl of stop solution to each well, the absorbance at 450 nm of each well was measured on a microplate reader.
To investigate the inhibitory effect of compounds 1h, 1i, and 1n on the LPS-induced inflammatory response, NO levels in the supernatants of RAW 264.7 macrophages incubated with DMSO (vehicle) or compound 1h, 1i, or 1n for 30 min before, and during, incubation for 24 h with LPS (1 µg/ml) were measured by the Griess reaction. […] We next investigated their effect on the expression of iNOS, the NO producing enzyme, using Western blots.
Figure 2 Effect of polyenylpyrrole derivatives on the expression of inflammatory mediators in LPS-stimulated RAW 264.7 macrophages. In (A) and (C), the cells (5 × 10^5/ml; 1 ml) were incubated for 30 min with 2.5-40 µM compound 1h, 1i, or 1n or DMSO (vehicle), then LPS (1 µg/ml) was added and incubation continued for 24 h, then NO (A) or IL-6 or TNF-α (C) in the culture medium was assayed by the Griess reaction or ELISA, respectively. In (B), cells (5 × 10^5/ml; 1 ml) were pretreated for 30 min with 2.5-40 µM compound 1h or DMSO, then LPS (1 µg/ml) was added and incubation continued for 24 h, then expression of iNOS and COX-2 was measured by Western blotting. The fold increase is the intensity of the band of interest divided by that of the actin band normalized to the corresponding value for the 0 LPS/0 inhibitor control.

[1] = RAW 264.7, 2.5-40 µM, LPS 1 µg/ml 24 h

O=c1cc(O)cc(/C=C/C=C/C=C/C=C/c2[nH]ccc2Cl)o1 [compound 1h]
IL-6 production by LPS-activated cells [1]: significantly decreased IL-6 production by LPS-activated cells in a dose-dependent manner | TNF-α secretion by LPS-activated cells [1]: only slightly and non-significantly reduced | Background levels of IL-6 and TNF-α in non-stimulated macrophages (RAW 264.7, no LPS (data not shown)): none of the three compounds altered background levels of IL-6 and TNF-α

Source: article PMC3792051, “Polyenylpyrrole Derivatives Inhibit NLRP3 Inflammasome Activation and Inflammatory Mediator Expression by Reducing Reactive Oxygen Species Production and Mitogen-Activated Protein Kinase Activation” (PLoS ONE, 2013)
